From patent US10670605B2, “Cysteine reactive probes and uses thereof” (The Scripps Research Institute, priority 2015, dated 2020)

Experiments:
Test in all cases: Competitive isoTOP-ABPP in situ (fragment-treated cells)
Type in all cases: cell-based
[1] = target: T1, cysteines in MDA-MB-231 and Ramos cells (Homo sapiens, UniProt A6NDU8)
T1 sequence (A6NDU8 1-294): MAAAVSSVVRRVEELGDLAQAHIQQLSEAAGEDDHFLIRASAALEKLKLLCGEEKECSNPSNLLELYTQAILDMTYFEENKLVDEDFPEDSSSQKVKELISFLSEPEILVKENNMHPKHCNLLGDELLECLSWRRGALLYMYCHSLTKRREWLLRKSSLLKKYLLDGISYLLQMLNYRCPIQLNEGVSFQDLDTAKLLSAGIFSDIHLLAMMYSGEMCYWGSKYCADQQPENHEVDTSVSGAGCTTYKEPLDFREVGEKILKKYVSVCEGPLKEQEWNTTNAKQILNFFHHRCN

[2] = target: cysteines in MDA-MB-231 and Ramos cells (Homo sapiens, UniProt O00299)
[3] = target: cysteines in MDA-MB-231 and Ramos cells (Homo sapiens, UniProt O60610)
Sequence of cysteines in MDA-MB-231 and Ramos cells (Homo sapiens, UniProt O60610) (O60610 whole entry): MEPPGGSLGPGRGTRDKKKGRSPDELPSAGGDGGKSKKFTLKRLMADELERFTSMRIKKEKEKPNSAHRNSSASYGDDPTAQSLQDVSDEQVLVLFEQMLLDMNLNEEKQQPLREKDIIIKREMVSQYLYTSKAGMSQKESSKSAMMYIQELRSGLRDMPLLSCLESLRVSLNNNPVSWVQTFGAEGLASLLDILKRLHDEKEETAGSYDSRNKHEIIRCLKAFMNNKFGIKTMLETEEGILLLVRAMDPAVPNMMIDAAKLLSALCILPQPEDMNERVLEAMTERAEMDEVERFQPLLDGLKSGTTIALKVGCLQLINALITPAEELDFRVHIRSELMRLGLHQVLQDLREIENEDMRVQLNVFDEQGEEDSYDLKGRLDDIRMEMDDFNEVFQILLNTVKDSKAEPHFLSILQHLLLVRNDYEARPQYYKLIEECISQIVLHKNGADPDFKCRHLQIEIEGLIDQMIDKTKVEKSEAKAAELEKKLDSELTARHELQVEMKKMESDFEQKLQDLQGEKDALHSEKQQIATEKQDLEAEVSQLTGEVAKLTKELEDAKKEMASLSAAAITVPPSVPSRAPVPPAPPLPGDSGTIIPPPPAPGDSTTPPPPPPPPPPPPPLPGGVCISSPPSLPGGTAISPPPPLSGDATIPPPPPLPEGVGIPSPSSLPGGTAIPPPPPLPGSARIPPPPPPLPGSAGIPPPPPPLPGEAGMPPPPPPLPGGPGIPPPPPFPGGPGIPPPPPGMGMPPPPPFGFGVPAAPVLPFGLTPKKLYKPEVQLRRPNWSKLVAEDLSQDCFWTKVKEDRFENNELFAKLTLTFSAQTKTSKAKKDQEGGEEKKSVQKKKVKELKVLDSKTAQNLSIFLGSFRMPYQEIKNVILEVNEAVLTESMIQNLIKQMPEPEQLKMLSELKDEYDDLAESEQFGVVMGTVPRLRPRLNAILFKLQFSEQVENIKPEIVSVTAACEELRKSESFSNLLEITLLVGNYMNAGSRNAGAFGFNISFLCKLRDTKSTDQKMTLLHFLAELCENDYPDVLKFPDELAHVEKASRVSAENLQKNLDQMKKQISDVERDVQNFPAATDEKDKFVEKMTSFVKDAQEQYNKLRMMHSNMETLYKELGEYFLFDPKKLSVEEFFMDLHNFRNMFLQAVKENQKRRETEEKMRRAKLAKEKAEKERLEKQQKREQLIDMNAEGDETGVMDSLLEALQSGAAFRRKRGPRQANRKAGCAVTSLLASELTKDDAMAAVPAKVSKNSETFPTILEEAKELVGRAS

[4] = target: T2, cysteines in MDA-MB-231 and Ramos cells (Homo sapiens, UniProt O95336)
T2 sequence (O95336 1-258): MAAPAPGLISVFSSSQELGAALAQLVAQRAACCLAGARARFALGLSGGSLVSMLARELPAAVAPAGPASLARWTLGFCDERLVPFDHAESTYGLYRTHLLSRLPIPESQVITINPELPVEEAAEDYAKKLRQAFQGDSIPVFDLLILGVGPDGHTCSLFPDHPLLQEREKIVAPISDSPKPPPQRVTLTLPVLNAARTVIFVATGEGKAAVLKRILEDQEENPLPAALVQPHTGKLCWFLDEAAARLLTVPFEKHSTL

[5] = target: T3, cysteines in MDA-MB-231 and Ramos cells (Homo sapiens, UniProt Q13418)
T3 sequence (Q13418 1-452): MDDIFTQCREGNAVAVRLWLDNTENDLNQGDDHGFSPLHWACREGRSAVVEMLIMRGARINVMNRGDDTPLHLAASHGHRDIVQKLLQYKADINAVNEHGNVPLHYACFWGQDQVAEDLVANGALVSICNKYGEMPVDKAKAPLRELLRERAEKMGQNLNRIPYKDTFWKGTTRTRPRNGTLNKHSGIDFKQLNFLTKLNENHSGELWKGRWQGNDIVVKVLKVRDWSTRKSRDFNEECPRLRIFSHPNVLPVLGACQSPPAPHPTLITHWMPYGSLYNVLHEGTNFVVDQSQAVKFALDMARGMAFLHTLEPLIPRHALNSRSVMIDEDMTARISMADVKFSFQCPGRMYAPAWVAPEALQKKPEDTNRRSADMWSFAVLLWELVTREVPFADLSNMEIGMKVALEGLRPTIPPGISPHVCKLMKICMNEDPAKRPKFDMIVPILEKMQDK

[6] = target: cysteines in MDA-MB-231 and Ramos cells (Homo sapiens, UniProt Q13526)
Sequence of cysteines in MDA-MB-231 and Ramos cells (Homo sapiens, UniProt Q13526) (Q13526 whole entry): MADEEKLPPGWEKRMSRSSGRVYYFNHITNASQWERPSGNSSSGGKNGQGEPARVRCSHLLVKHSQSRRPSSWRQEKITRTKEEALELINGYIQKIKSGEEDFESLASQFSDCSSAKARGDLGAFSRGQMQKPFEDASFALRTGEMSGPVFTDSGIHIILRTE

[7] = target: T4, cysteines in MDA-MB-231 and Ramos cells (Homo sapiens, UniProt Q9HAV7)
T4 sequence (Q9HAV7 28-217): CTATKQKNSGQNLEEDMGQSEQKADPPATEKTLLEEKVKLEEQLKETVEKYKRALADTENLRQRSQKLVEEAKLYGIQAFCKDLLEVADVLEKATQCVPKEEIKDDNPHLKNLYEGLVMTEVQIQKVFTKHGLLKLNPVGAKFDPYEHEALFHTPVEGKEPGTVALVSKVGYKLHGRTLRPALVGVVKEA

[8] = target: T5, cysteines in MDA-MB-231 and Ramos cells (Homo sapiens, UniProt Q9Y277)
T5 sequence (Q9Y277 1-283): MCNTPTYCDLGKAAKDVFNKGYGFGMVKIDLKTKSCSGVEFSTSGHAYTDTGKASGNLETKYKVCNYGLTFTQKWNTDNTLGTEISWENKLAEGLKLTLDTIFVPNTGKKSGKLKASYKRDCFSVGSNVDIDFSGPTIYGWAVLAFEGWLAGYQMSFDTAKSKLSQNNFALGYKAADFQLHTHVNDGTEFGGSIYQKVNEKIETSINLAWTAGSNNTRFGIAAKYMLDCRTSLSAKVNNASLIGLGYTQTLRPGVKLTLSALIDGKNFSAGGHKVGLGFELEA

[9] = target: T6, cysteines in MDA-MB-231 and Ramos cells (Homo sapiens, UniProt Q9Y3A3)
T6 sequence (Q9Y3A3 1-225): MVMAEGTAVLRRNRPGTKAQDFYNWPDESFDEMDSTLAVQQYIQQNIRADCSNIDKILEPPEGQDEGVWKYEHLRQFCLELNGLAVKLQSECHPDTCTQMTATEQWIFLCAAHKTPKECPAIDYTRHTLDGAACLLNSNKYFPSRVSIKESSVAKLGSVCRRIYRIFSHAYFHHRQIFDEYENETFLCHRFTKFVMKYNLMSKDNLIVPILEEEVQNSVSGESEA

## COc1ccc2c(c1)CCCN2C(=O)CCl [compound 2]
[1]; 200 μM, insitu, 231
  isoTOP-ABPP reactivity A6NDU8_C179 C5orf51: 4.2
[2]; 200 μM, insitu, 231
  isoTOP-ABPP reactivity O00299_C24 CLIC1: 9.5
[3]; 200 μM, insitu, 231
  isoTOP-ABPP reactivity O60610_C1227 DIAPH1: 2.2
[4]; 200 μM, insitu, 231
  isoTOP-ABPP reactivity O95336_C32 PGLS: 14.9
[5]; 200 μM, insitu, 231
  isoTOP-ABPP reactivity Q13418_C346 ILK: 1.4
[6]; 200 μM, insitu, 231
  isoTOP-ABPP reactivity Q13526_C113 PIN1: 20.0
[7]; 200 μM, insitu, 231
  isoTOP-ABPP reactivity Q9HAV7_C124 GRPEL1: 3.2
[8]; 200 μM, insitu, 231
  isoTOP-ABPP reactivity Q9Y277_C65 VDAC3: 3.3

## COc1ccc(C2CC(c3cccs3)=NN2C(=O)CCl)cc1 (stereo not shown) [compound 4]
[1]; 100 μM in situ 231
  isoTOP-ABPP reactivity A6NDU8_C179 C5orf51: 3.0
[2]; 100 μM in situ 231
  isoTOP-ABPP reactivity O00299_C24 CLIC1: 20.0
[3]; 100 μM in situ 231
  isoTOP-ABPP reactivity O60610_C1227 DIAPH1: 1.6
[5]; 100 μM in situ 231
  isoTOP-ABPP reactivity Q13418_C346 ILK: 0.8
[6]; 100 μM in situ 231
  isoTOP-ABPP reactivity Q13526_C113 PIN1: 3.4
[7]; 100 μM in situ 231
  isoTOP-ABPP reactivity Q9HAV7_C124 GRPEL1: 1.7
[8]; 100 μM in situ 231
  isoTOP-ABPP reactivity Q9Y277_C65 VDAC3: 4.7
[9]; 100 μM in situ 231
  isoTOP-ABPP reactivity Q9Y3A3_C134 MOB4: 1.2

## COc1cc2c(cc1OC)CN(C(=O)CCl)CC2 [compound 8]
[2]; 200 μM, insitu, 231
  isoTOP-ABPP reactivity O00299_C24 CLIC1: 10.3
[4]; 200 μM, insitu, 231
  isoTOP-ABPP reactivity O95336_C32 PGLS: 20.0
[6]; 200 μM, insitu, 231
  isoTOP-ABPP reactivity Q13526_C113 PIN1: 2.6
[7]; 200 μM, insitu, 231
  isoTOP-ABPP reactivity Q9HAV7_C124 GRPEL1: 2.2
[9]; 200 μM, insitu, 231
  isoTOP-ABPP reactivity Q9Y3A3_C134 MOB4: 1.6

## O=C(CCl)N1CCC(Cc2ccccc2)CC1 [compound 9]
[1]; 200 μM, insitu, 231
  isoTOP-ABPP reactivity A6NDU8_C179 C5orf51: 20.0
[2]; 200 μM, insitu, 231
  isoTOP-ABPP reactivity O00299_C24 CLIC1: 3.0
[3]; 200 μM, insitu, 231
  isoTOP-ABPP reactivity O60610_C1227 DIAPH1: 1.5
[4]; 200 μM, insitu, 231
  isoTOP-ABPP reactivity O95336_C32 PGLS: 6.7
[5]; 200 μM, insitu, 231
  isoTOP-ABPP reactivity Q13418_C346 ILK: 2.7
[6]; 200 μM, insitu, 231
  isoTOP-ABPP reactivity Q13526_C113 PIN1: 3.3
[7]; 200 μM, insitu, 231
  isoTOP-ABPP reactivity Q9HAV7_C124 GRPEL1: 4.7
[9]; 200 μM, insitu, 231
  isoTOP-ABPP reactivity Q9Y3A3_C134 MOB4: 20.0

## O=C(CCl)N1CCN(S(=O)(=O)c2ccccc2F)CC1 [compound 10]
[1]; 200 μM, insitu, 231
  isoTOP-ABPP ratio A6NDU8_C179: 1.3
[2]; 200 μM, insitu, 231
  isoTOP-ABPP ratio O00299_C24: 5.0
[3]; 200 μM, insitu, 231
  isoTOP-ABPP ratio O60610_C1227: 1.5
[3]; 200 μM, insitu, ramos
  isoTOP-ABPP ratio O60610_C1227: 1.4
[5]; 200 μM, insitu, 231
  isoTOP-ABPP ratio Q13418_C346: 1.1
[5]; 200 μM, insitu, ramos
  isoTOP-ABPP ratio Q13418_C346: 8.3
[6]; 200 μM, insitu, 231
  isoTOP-ABPP ratio Q13526_C113: 2.0
[6]; 200 μM, insitu, ramos
  isoTOP-ABPP ratio Q13526_C113: 1.3
[7]; 200 μM, insitu, 231
  isoTOP-ABPP ratio Q9HAV7_C124: 1.0
[8]; 200 μM, insitu, 231
  isoTOP-ABPP ratio Q9Y277_C65: 3.3
[8]; 200 μM, insitu, ramos
  isoTOP-ABPP ratio Q9Y277_C65: 2.5
[9]; 200 μM, insitu, 231
  isoTOP-ABPP ratio Q9Y3A3_C134: 1.9

## Cn1cc(S(=O)(=O)N2CCOCC2)cc1C(=O)NC(=O)CCl [compound 11]
[1]; 100 μM in situ 231
  isoTOP-ABPP ratio A6NDU8_C179: 0.7
[2]; 100 μM in situ 231
  isoTOP-ABPP ratio O00299_C24: 2.5
[3]; 100 μM in situ 231
  isoTOP-ABPP ratio O60610_C1227: 0.9
[4]; 100 μM in situ 231
  isoTOP-ABPP ratio O95336_C32: 0.9
[5]; 100 μM in situ 231
  isoTOP-ABPP ratio Q13418_C346: 0.6
[6]; 100 μM in situ 231
  isoTOP-ABPP ratio Q13526_C113: 0.7
[7]; 100 μM in situ 231
  isoTOP-ABPP ratio Q9HAV7_C124: 0.9
[8]; 100 μM in situ 231
  isoTOP-ABPP ratio Q9Y277_C65: 1.4
[9]; 100 μM in situ 231
  isoTOP-ABPP ratio Q9Y3A3_C134: 1.8

## O=C(CCl)NC(=O)NC12CC3CC(CC(C3)C1)C2 [compound 12]
[2]; 200 μM, insitu, 231
  isoTOP-ABPP ratio O00299_C24: 20.0
[3]; 200 μM, insitu, 231
  isoTOP-ABPP ratio O60610_C1227: 0.8
[4]; 200 μM, insitu, 231
  isoTOP-ABPP ratio O95336_C32: 20.0
[5]; 200 μM, insitu, 231
  isoTOP-ABPP ratio Q13418_C346: 0.6
[6]; 200 μM, insitu, 231
  isoTOP-ABPP ratio Q13526_C113: 0.6
[7]; 200 μM, insitu, 231
  isoTOP-ABPP ratio Q9HAV7_C124: 1.1
[8]; 200 μM, insitu, 231
  isoTOP-ABPP ratio Q9Y277_C65: 3.9
[9]; 200 μM, insitu, 231
  isoTOP-ABPP ratio Q9Y3A3_C134: 1.4

## O=C(CCl)NCCc1c[nH]c2ccccc12 [compound 13]
[1]; 200 μM, insitu, 231
  isoTOP-ABPP ratio A6NDU8_C179: 0.8
[2]; 200 μM, insitu, ramos
  isoTOP-ABPP ratio O00299_C24: 1.8
[3]; 200 μM, insitu, 231
  isoTOP-ABPP ratio O60610_C1227: 0.7
[3]; 200 μM, insitu, ramos
  isoTOP-ABPP ratio O60610_C1227: 0.9
[4]; 200 μM, insitu, 231
  isoTOP-ABPP ratio O95336_C32: 1.6
[4]; 200 μM, insitu, ramos
  isoTOP-ABPP ratio O95336_C32: 2.2
[5]; 200 μM, insitu, 231
  isoTOP-ABPP ratio Q13418_C346: 0.7
[5]; 200 μM, insitu, ramos
  isoTOP-ABPP ratio Q13418_C346: 2.1
[6]; 200 μM, insitu, 231
  isoTOP-ABPP ratio Q13526_C113: 0.9
[6]; 200 μM, insitu, ramos
  isoTOP-ABPP ratio Q13526_C113: 1.0
[8]; 200 μM, insitu, 231
  isoTOP-ABPP ratio Q9Y277_C65: 1.0
[9]; 200 μM, insitu, ramos
  isoTOP-ABPP ratio Q9Y3A3_C134: 1.9
